Measurements published in ChEMBL document CHEMBL1129734, “Synthesis and structure-activity relationships of a new model of arylpiperazines. 1. 2-[[4-(o-methoxyphenyl)piperazin-1-yl]methyl]-1, 3-dioxoperhydroimidazo[1,5-alpha]pyridine: a selective 5-HT1A receptor agonist” (J Med Chem, 1996).

Legend:
[1] = biological target: 5-hydroxytryptamine receptor 2A (Rattus norvegicus, UniProt P14842); test: Compound was evaluated for the binding affinity towards 5-hydroxytryptamine 2A receptor using [3H]ketanserin radioligand.
5-hydroxytryptamine receptor 2A, sequence (P14842 whole entry): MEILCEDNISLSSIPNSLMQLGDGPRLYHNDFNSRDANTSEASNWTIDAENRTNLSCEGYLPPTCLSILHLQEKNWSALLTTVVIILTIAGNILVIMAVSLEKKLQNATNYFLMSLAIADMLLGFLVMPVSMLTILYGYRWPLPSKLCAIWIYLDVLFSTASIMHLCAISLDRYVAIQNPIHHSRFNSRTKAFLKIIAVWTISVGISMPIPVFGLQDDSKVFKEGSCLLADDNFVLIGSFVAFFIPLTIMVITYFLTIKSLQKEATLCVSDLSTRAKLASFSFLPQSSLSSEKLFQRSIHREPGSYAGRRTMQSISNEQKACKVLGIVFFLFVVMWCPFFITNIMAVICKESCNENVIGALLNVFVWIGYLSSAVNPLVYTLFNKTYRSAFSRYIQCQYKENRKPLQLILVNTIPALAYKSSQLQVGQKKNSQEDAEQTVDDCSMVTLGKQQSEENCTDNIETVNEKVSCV

[2] = biological target: T1, Adrenergic receptor alpha-1 (Rattus norvegicus, UniProt P15823+P23944+P43140); test: Binding affinity towards alpha-1 adrenergic receptor using [3H]prazosin radioligand.; assay type: protein assay
T1 sequence (P15823 whole entry): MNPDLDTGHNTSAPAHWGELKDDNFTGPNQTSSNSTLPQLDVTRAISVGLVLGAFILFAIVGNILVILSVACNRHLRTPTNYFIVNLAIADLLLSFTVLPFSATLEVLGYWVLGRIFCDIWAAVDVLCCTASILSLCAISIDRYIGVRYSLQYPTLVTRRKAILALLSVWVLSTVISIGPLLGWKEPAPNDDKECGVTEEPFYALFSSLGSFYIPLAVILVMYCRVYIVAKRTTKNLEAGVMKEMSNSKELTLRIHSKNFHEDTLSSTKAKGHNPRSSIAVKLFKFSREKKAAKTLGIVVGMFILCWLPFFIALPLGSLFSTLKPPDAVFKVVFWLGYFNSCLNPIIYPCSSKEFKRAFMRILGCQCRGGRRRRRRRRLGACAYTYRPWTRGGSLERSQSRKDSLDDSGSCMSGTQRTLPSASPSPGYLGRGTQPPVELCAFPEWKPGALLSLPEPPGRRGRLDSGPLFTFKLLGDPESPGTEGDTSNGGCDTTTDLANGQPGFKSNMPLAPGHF
T1 sequence (P23944 whole entry): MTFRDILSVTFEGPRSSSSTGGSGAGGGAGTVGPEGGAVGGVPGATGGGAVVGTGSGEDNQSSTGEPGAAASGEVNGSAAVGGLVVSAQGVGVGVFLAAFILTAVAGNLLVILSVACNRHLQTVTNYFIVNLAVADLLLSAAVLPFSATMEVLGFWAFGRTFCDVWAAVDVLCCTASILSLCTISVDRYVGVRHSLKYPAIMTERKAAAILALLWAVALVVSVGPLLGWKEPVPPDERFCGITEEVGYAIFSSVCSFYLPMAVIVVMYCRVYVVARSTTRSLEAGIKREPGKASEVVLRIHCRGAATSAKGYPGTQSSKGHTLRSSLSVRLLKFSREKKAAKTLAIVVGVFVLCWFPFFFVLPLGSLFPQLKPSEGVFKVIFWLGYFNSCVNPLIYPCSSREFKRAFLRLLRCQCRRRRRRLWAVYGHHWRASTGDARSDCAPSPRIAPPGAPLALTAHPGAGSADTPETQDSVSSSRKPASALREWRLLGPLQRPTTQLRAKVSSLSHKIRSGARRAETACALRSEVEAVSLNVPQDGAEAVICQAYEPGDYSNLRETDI
T1 sequence (P43140 whole entry): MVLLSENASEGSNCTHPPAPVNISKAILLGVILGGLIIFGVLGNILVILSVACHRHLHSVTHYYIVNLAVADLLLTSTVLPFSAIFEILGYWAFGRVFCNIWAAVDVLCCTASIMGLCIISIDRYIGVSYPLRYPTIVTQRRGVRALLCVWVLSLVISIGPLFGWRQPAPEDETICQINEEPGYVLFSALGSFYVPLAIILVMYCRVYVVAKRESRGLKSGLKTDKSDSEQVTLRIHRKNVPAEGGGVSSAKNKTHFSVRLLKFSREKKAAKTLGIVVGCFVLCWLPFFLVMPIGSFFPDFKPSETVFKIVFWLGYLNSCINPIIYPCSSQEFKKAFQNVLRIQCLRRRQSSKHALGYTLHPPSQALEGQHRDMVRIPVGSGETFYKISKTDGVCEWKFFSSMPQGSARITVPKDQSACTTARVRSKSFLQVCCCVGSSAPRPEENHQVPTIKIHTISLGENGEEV

[3] = system: Mus musculus; test: Effect on rectal temperature in mice at dose of 20 mg/kg po; assay type: functional
[4] = system: Mus musculus; test: Effect on rectal temperature in mice at dose of 20 mg/kg sc.; assay type: functional
[5] = biological target: D(2) dopamine receptor (Rattus norvegicus, UniProt P61169); test: Binding affinity towards dopamine receptor D2 using [3H]-raclopride radioligand.
D(2) dopamine receptor, sequence (P61169 whole entry): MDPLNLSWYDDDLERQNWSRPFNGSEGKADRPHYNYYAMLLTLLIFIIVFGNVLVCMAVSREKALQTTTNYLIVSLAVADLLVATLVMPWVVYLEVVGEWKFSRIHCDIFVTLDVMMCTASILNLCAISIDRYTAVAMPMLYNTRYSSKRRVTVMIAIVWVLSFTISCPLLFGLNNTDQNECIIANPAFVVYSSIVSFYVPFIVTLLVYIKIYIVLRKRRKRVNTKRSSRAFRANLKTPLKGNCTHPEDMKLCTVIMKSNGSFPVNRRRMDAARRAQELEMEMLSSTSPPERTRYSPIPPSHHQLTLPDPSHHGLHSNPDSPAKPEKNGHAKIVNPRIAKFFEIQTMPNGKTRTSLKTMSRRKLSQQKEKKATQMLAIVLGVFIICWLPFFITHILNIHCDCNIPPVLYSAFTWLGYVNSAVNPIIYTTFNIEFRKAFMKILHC

[6] = system: Mus musculus; test: Effect on rectal temperature in mice at dose of 10 mg/kg sc.; assay type: functional
[7] = system: Mus musculus; test: Effect on rectal temperature in mice at dose of 0.5 mg/kg sc.; assay type: functional
[8] = system: Mus musculus; test: Effect on rectal temperature in mice at dose of 2.5 mg/kg sc.; assay type: functional
[9] = system: Mus musculus; test: Effect on rectal temperature in mice at dose of 40 mg/kg po; assay type: functional
[10] = biological target: T2, 5-hydroxytryptamine receptor 1A (Rattus norvegicus, UniProt P19327); test: Binding affinity towards rat 5-hydroxytryptamine 1A receptor using [3H]8-OH-DPAT radioligand.
T2 sequence (P19327 whole entry): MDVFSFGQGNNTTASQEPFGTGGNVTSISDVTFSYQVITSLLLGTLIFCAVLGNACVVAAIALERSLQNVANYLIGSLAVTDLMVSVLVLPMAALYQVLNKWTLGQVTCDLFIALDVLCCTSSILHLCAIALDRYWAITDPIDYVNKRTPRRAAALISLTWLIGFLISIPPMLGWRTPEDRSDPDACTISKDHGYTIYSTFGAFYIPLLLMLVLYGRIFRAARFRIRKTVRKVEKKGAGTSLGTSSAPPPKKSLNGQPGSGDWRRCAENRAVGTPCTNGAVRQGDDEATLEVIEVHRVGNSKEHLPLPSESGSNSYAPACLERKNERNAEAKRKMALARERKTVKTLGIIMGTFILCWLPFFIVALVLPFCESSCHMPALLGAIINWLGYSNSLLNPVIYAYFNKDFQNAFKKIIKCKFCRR

[11] = system: Mus musculus; test: Effect on rectal temperature in mice at dose of 5 mg/kg sc.; assay type: functional
[12] = organism: Mus musculus; test: Effect in the social interaction behavioral test in mice; assay type: functional
[13] = system: Mus musculus; test: Effect on rectal temperature in mice at dose of 30 mg/kg po; assay type: functional
[14] = system: Mus musculus; test: Effect on rectal temperature in mice at dose of 10 mg/kg po.; assay type: functional

Ki [1]	Ki [2]	Ki [5]	Ki [10]	SMILES	T decrease [3]	T decrease [4]	T decrease [6]	T decrease [7]	T decrease [8]	T decrease [9]	T decrease [11]	ED50 [12]	Max effect [12]	T decrease [13]	T decrease [14]
> 1000 nM	> 1000 nM	> 10000 nM	31.7 nM	COc1ccccc1N1CCN(CN2C(=O)C3CCCCN3C2=O)CC1 (stereo not given)	0.22 °C	-1.56 °C	-1.46 °C	0.37 °C	0.06 °C	-0.85 °C	-0.78 °C	3.58 mg/kg	130.8 s	-0.28 °C	-0.3 °C
	72.4 nM	90.6 nM	9.9 nM	O=C1C2CCCCN2C(=O)N1CCCCN1CCN(c2cccc(C(F)(F)F)c2)CC1 (stereo not given)	-0.55 °C	-2.73 °C	-1.55 °C	-0.58 °C	-0.77 °C	-1 °C	-0.92 °C	1.25 mg/kg	56.5 s	-1.23 °C	0.07 °C
				CCCN(CCC)C1CCc2cccc(O)c2C1 (stereo not given) [8-OH-DPAT]			-2.26 °C	-0.9 °C	-1.7 °C		-1.66 °C	0.58 mg/kg	132.2 s		
